Tests used:
in vivo [1] = details: Sprague-Dawley, rat, iv, 1 mg/kg
in vivo [2] = details: Sprague-Dawley, rat, po, 5 mg/kg
in vivo [3] = details: Sprague-Dawley, rat, po, 5 mg/kg; remark: listed apart in the source
in vivo [4] = details: Sprague-Dawley, rat, iv, 1 mg/kg; remark: listed apart in the source
in vivo [5] = details: Sprague-Dawley, rat, iv, 1 mg/kg; remark: listed apart in the source
in vivo [6] = details: Sprague-Dawley, rat, po, 5 mg/kg; remark: listed apart in the source
in vivo [7] = details: Sprague-Dawley, rat, po, 5 mg/kg; remark: listed apart in the source
[8] = Oral bioavailability in human in fed state at 560 mg administered daily; format: ADME, organism-based; details: in vivo
[9] = Oral bioavailability in human in fasting state at 560 mg administered daily; format: ADME, organism-based; details: in vivo
[10] = Plasma concentration in ICR mouse at 17.7 mg/kg, po administered as single dose measured at 0.5 hrs by LC-MS/MS analysis; format: ADME, organism-based
[11] = Plasma concentration in ICR mouse at 8.9 mg/kg, po administered as single dose measured at 0.5 hrs by LC-MS/MS analysis; format: ADME, organism-based
[12] = Plasma concentration in ICR mouse at 1.4 mg/kg, po administered as single dose measured at 0.5 hrs by LC-MS/MS analysis; format: ADME, organism-based
[13] = Plasma concentration in ICR mouse at […], po administered as single dose measured at 0.5 hrs by LC-MS/MS analysis; format: ADME, organism-based
[14] = Plasma concentration in ICR mouse at 4.4 mg/kg, po administered as single dose measured at 0.5 hrs by LC-MS/MS analysis; format: ADME, organism-based
[15] = Plasma concentration in ICR mouse at 2.2 mg/kg, po administered as single dose measured at 0.5 hrs by LC-MS/MS analysis; format: ADME, organism-based
[16] = Plasma concentration in ICR mouse at 14.5 mg/kg, po administered as single dose measured at 2 hrs by LC-MS/MS analysis; format: ADME, organism-based
[17] = Plasma concentration in ICR mouse at 0.7 mg/kg, po administered as single dose measured at 0.5 hrs by LC-MS/MS analysis; format: ADME, organism-based
[18] = Cmax in ICR mouse plasma at 14.5 mg/kg, po administered as single dose by LC-MS/MS analysis; format: ADME, organism-based; set-up: dose 14.5 mg/kg, route oral
[19] = Plasma concentration in ICR mouse at 14.5 mg/kg, po administered as single dose measured at 4 hrs by LC-MS/MS analysis; format: ADME, organism-based
[20] = Plasma concentration in ICR mouse at 2.9 mg/kg, po administered as single dose measured at 0.5 hrs by LC-MS/MS analysis; format: ADME, organism-based

C=CC(=O)Nc1ccccc1C1CCNc2c(C(N)=O)c(-c3ccc(OCC4CC4)cc3)nn21 (stereo not given)
half-life (in vivo [1]): 24 min
AUC (in vivo [2]): 344 ng·h/mL
Cmax (in vivo [3]): 202 ng/mL
clearance (in vivo [4]): 82.3 mL/min/kg
Vd (in vivo [5]): 1.01 L/kg
bioavailability (in vivo [6]): 34%
Tmax (in vivo [7]): 19.8 min

C=CC(=O)N1CC(C2CCNc3c(C(N)=O)c(-c4ccc(Oc5ccccc5)cc4)nn32)C1 (stereo not given)
half-life (in vivo [1]): 15.6 min
AUC (in vivo [2]): 50.3 ng·h/mL
Cmax (in vivo [3]): 10.4 ng/mL
clearance (in vivo [4]): 169 mL/min/kg
Vd (in vivo [5]): 2.85 L/kg
bioavailability (in vivo [6]): 8.6%
Tmax (in vivo [7]): 140 min

C=CC(=O)NCC1CCNc2c(C(N)=O)c(-c3ccc(Oc4ccccc4)cc3)nn21 (stereo not given)
half-life (in vivo [1]): 12.6 min
AUC (in vivo [2]): 51.1 ng·h/mL
Cmax (in vivo [3]): 19.6 ng/mL
clearance (in vivo [4]): 93.9 mL/min/kg
Vd (in vivo [5]): 1.19 L/kg
bioavailability (in vivo [6]): 5.7%
Tmax (in vivo [7]): 19.8 min

C=CC(=O)N1CCC[C@@H](n2nc(-c3ccc(Oc4ccccc4)cc3)c3c(N)ncnc32)C1 [IBRUTINIB]
bioavailability [8]: 8.4%
bioavailability [9]: 3.9%

C=CC(=O)N1CCC([C@@H]2CCNc3c(C(N)=O)c(-c4ccc(Oc5ccccc5)cc4)nn32)CC1 [ZANUBRUTINIB]
AUC (in vivo [2]): 257 ng·h/mL
concentration at 0.5 h [10]: 500 nM
concentration at 0.5 h [11]: 350 nM
concentration at 0.5 h [12]: 110 nM
concentration at 0.5 h [13]: 590 nM
concentration at 0.5 h [14]: 180 nM
concentration at 0.5 h [15]: 70 nM
concentration at 2 h [16]: 470 nM
Cmax (in vivo [3]): 235 ng/mL
clearance (in vivo [4]): 76.8 mL/min/kg
concentration at 0.5 h [17]: 40 nM
Vd (in vivo [5]): 2.32 L/kg
bioavailability (in vivo [6]): 23.6%
Cmax [18]: 4800 nM
Tmax (in vivo [7]): 19.8 min
concentration at 4 h [19]: 90 nM
concentration at 0.5 h [20]: 320 nM

Reference: ChEMBL document CHEMBL4414549 (J Med Chem, 2019)
